Like-named read-outs stand apart in the source and are kept apart here.
Key:
SlGSTD1 [1] = molecular target: T1, SlGSTD1 (Spodoptera litura, UniProt A0A9J7IUS4); experiment: GSH conjugation, A340, Michaelis-Menten fit; type: biochemical; details: GSH 30 μL of 100 μmol mL^−1 in about 1.1 mL; PBS 0.1 mol L^−1 pH 7.0
T1 construct: gene LOC111355915
T1 sequence (A0A9J7IUS4 1-221): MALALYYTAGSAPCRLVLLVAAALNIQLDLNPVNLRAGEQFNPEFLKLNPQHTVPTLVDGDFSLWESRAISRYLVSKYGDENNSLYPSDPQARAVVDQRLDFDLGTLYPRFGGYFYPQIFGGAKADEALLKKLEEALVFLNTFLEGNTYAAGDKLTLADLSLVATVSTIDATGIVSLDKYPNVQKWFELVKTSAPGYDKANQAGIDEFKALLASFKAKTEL

SlGSTD1 [2] = molecular target: T1, SlGSTD1; experiment: inhibition of GSH-CDNB conjugation, A340; type: biochemical

| SMILES | IC50 (SlGSTD1 [2]) [µM] | other results |
| --- | --- | --- |
| O=[N+]([O-])c1ccc(Cl)c([N+](=O)[O-])c1 [CDNB] |  | Km (SlGSTD1 [1]): 1680 ± 110 µM |
| CCOC(=O)/C=C\C(=O)OCC [DEM, reference compound] |  | IC50 (SlGSTD1 [2]; read-out: IC50): 2.1 ± 0.3 µM |
| CCOP(=S)(OCC)Oc1nc(Cl)c(Cl)cc1Cl [chlorpyrifos] | 170 ± 15.2 |  |
| CC1(C)C(/C=C(\Cl)C(F)(F)F)C1C(=O)OC(C#N)c1cccc(Oc2ccccc2)c1 (centres unmarked) [cyhalothrin] | 124 ± 10.3 |  |
| CC(C)C(C(=O)OC(C#N)c1cccc(Oc2ccccc2)c1)c1ccc(Cl)cc1 (centres unmarked) [fenvalerate] | 21.6 ± 3.2 |  |
